PubChem BioAssay AID226 (DTP/NCI, 2004)
Where “and” joins values, the source holds several entries; their conditions need not be identical. Equal values may be shown once. Toxic doses and inconclusive results are not listed. Rule for the calls: active = survival T/C of 150% or more; inactive = T/C below 125% in these data.

Test system: B6C3F1 mice, intracerebral ependymoblastoma, median survival T/C
Assay: NCI In Vivo Anticancer Drug Screen. Data for tumor model Ependymoblastoma (intracerebral) in B6C3F1 mice
Details: endpoint: median survival time, schedule: Q01DX005 (ip), vehicle: Klucel (hydroxypropylcellulose) (HPC), higher = longer survival
Procedure: The antitumor activity of compounds was measured in mice bearing transplantable tumors. Survival or tumor size were measured and the results are expressed as the measurement made in the treated group (T) divided by the measurement made in the vehicle treated control group (C). The tumor model used in this assay is Ependymoblastoma (intracerebral) in B6C3F1 mice

Measured: T/C

O=C1C(=O)c2ccccc2C(O)=C1CC=C(Cl)Cl
inactive: dose: 10.0 mg/kg/injection 100 % of control and 103 % of control | dose: 20.0 mg/kg/injection 96 % of control and 98 % of control | dose: 40.0 mg/kg/injection 103 % of control and 89 % of control | dose: 80.0 mg/kg/injection 96 % of control and 103 % of control
